Measurements as given in patent publication US20150272939A1, “Identification of Small Molecule Inhibitors of Jumonji AT-Rich Interactive Domain 1A (JARID1A) and 1B (JARID1B) Histone Demethylase” (Yale University, priority 2012, published 2015).
“And” between values parts separate entries of the source, which are not always exact repeats. Identical values can stand only once. Counter-ions that a name gives are not always drawn. Like-named read-outs stand apart in the source and are kept apart here.

How the values were obtained:
[1] = AlphaScreen counterscreen against bio-H3K4me2 peptide in the absence of enzyme (artifact signal); conditions: for Artifact Signal (percent): effect of the compound when incubated with bio-H3K4me2 peptide (counterscreen, no enzyme);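 for all read-outs here: counterscreen run without enzyme against bio-H3K4me2 peptide to remove false positive hits from the JARID1 demethylase AlphaScreen screen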
[2] = target: T1, JARID1B (Homo sapiens, UniProt Q9UGL1); assay: FLAG-JARID1B histone demethylase assay with AlphaScreen detection (HTS and dose response); type: biochemical; conditions: for Assay − Artifact Signal (percent): assay signal minus artifact signal; for inhibition at 20 µM: read-out: Inhibitory effect (percent); for Assay Signal (percent): effect of compound in JARID1B AlphaScreen assay;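 for Assay Signal (percent): compound tested at 20 µM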;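 for Assay − Artifact Signal (percent): compound tested at 20 µM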;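 for all read-outs here: FLAG-tagged JARID1B at 4 nM acting on a biotinylated H3K4me3 peptide, demethylation read by AlphaScreen luminescence, with hits checked against bio-H3K4me2 without enzyme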
T1 construct: The FLAG tagged full length JARID1B enzyme was expressed in Sf21 insect cells using FLAG-JARID1B baculoviruses; FLAG (N); made in house; host or cells: Sf21 insect cells (baculovirus)

[3] = high-throughput screen, compound 20 μM, standard demethylase conditions (10 μM α-KG, 50 μM Fe (II))
[4] = counterscreen, bio-H3K4me2 peptide, no enzyme
[5] = high-throughput screen, compound 20 μM, IDs marked *: additional hits under reaction condition with 1 mM α-KG
[6] = validation of HTS actives, total signal before subtraction of artifact signal

T1 sequence (Q9UGL1 whole entry): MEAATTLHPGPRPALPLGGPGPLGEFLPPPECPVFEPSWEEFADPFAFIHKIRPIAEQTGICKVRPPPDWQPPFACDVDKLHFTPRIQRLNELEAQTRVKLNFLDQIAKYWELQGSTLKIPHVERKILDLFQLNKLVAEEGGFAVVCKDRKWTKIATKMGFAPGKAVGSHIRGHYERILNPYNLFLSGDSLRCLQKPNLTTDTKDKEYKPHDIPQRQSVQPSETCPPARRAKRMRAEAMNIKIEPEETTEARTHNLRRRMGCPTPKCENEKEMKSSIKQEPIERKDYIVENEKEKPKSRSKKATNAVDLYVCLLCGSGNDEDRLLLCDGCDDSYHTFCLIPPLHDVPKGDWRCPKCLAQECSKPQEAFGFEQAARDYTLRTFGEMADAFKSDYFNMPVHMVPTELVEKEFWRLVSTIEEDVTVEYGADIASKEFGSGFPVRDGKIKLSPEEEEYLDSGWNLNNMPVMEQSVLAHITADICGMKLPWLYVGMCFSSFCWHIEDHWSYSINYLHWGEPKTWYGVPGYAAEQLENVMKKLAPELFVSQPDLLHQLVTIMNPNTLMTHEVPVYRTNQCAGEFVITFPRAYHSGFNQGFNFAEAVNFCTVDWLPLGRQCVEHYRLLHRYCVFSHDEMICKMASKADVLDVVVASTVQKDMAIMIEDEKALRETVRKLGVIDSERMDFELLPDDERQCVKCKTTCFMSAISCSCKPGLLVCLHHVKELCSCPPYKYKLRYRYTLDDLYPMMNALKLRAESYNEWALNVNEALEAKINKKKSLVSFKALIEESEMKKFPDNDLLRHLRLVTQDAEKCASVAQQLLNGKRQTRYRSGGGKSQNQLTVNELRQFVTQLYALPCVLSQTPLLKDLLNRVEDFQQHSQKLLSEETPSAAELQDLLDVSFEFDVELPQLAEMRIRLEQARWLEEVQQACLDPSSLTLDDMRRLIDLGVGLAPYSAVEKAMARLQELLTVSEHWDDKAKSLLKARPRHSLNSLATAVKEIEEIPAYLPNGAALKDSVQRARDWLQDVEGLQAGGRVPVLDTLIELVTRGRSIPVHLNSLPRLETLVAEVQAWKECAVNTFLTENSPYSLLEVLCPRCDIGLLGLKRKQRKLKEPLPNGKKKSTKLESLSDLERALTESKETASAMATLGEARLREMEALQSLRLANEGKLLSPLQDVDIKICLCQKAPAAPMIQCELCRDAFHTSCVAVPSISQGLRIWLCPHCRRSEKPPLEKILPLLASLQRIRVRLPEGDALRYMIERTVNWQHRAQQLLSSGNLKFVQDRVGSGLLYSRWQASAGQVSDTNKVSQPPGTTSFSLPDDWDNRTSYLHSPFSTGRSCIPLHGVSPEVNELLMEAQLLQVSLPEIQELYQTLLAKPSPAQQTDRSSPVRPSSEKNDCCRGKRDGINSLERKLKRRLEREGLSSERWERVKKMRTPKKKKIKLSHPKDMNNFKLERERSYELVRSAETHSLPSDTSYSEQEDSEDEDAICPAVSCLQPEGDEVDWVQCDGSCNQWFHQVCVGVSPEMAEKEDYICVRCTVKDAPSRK

| Artifact Signal (percent) [1] [%] | Assay − Artifact Signal (percent) [2] [%] | inhibition at 20 µM [2, 3] [%] | Assay Signal (percent) ([2]; validation of HTS actives) [%] | Artifact signal: effect of the compound when it is incubated with bio-H3K4me2 peptide [1, 4] | Validation result of HTS active: effect of the compound in the JARID1B AlphaScreen demethylase assay [2, 6] | Structure (SMILES) | other results |
| --- | --- | --- | --- | --- | --- | --- | --- |
| 21.46 | 52.50 | 70.6 | 73.96 |  |  | NC(CO)C(=O)NNCc1ccc(O)c(O)c1O (centres unmarked) [YU033702, BENSERAZIDE HYDROCHLORIDE, reference compound] |  |
| 0.43 | 27.81 |  | 28.24 |  |  | CN(C)[C@@H]1C(O)=C(C(N)=O)C(=O)[C@@]2(O)C(O)=C3C(=O)c4c(O)ccc(Cl)c4[C@@](C)(O)[C@H]3C[C@@H]12 [YU033743, AUREOMYCIN, reference compound] | inhibition at 20 µM [2, 5]: 90% |
| 10.00 | 32.68 | 51.3 | 42.68 | −2.83 | −1.42 | NCCc1ccc(O)c(O)c1 [YU033802, DOPAMINE HYDROCHLORIDE, reference compound] | Inhibitory effect (percent) ([2]; high-throughput screen, compound 20 μM, standard demethylase conditions (10 μM α-KG, 50 μM Fe (II)), HYDROCHLORIDE): 46.86% |
| −6.64 | 47.54 | 56.3 | 40.90 |  |  | CNC[C@H](O)c1ccc(O)c(O)c1 [YU033809, ADRENALINE BITARTRATE, reference compound] |  |
| −2.38 | 35.20 | 47.7 | 32.81 |  |  | CC(C)NCC(O)c1ccc(O)c(O)c1 (centres unmarked) [YU033874, ISOPROTERENOL HYDROCHLORIDE, reference compound] |  |
| −0.54 | 30.75 | 69.1 | 50.21 |  |  | C[C@](N)(Cc1ccc(O)c(O)c1)C(=O)O [YU033903, METHYLDOPA, reference compound] |  |
| 1.83 | 37.97 | 58.5 | 39.80 |  |  | NC[C@H](O)c1ccc(O)c(O)c1 [YU033927, NOREPINEPHRINE, reference compound] |  |
| 53.76 | 26.51 | 100 | 80.27 |  |  | C[C@@](Cc1ccc(O)c(O)c1)(NN)C(=O)O [YU034292, CARBIDOPA, reference compound] |  |
| 2.37 | 9.70 |  | 12.08 | 31.44 | 37.80 | O=c1oc2c(O)c(O)cc3c(=O)oc4c(O)c(O)cc1c4c23 [YU034320, ELLAGIC ACID, reference compound] | Inhibitory effect (percent) [2, 3]: 61.25% and 40.88% |
| 14.27 | 41.47 | 68.8 | 55.74 |  |  | N[C@@H](Cc1ccc(O)c(O)c1)C(=O)O [YU034332, LEVODOPA, reference compound] |  |

Continued, compound first:

| Structure (SMILES) | Artifact Signal (percent) [1] [%] | Assay − Artifact Signal (percent) [2] [%] | inhibition at 20 µM [2, 3] [%] | Assay Signal (percent) ([2]; validation of HTS actives) [%] | Artifact signal: effect of the compound when it is incubated with bio-H3K4me2 peptide [1, 4] | Validation result of HTS active: effect of the compound in the JARID1B AlphaScreen demethylase assay [2, 6] | other results |
| --- | --- | --- | --- | --- | --- | --- | --- |
| Oc1c(Cl)cc(Cl)cc1Sc1cc(Cl)cc(Cl)c1O [YU033712, BITHIONOL, reference compound] |  |  |  |  | −3.70 | 0.82 | inhibition at 20 µM [2, 5]: 47.6% |
| N=C(NCCCCCCNC(=N)NC(=N)Nc1ccc(Cl)cc1)NC(=N)Nc1ccc(Cl)cc1 [YU033734, CHLORHEXIDINE, reference compound] |  |  | 41 |  | 1.97 | −1.12 |  |
| CCN(CC)CCOc1ccc(/C(=C(\Cl)c2ccccc2)c2ccccc2)cc1 [YU033752, CLOMIPHENE CITRATE, reference compound] | 0.86 | 15.81 | 47 | 16.67 |  |  |  |
| [O-][n+]1ccccc1[S-].[O-][n+]1ccccc1[S-].[Zn+2] [YU033800, PYRITHIONE ZINC, reference compound] |  |  |  |  |  |  | Artifact signal: effect of the compound when it is incubated with bio-H3K4me2 peptide [1]: −19.95; Inhibitory effect (percent) [2]: 99.02%; Validation effect minus artifact signal [2]: 1.60; Validation result of HTS active: effect of the compound in the JARID1B AlphaScreen demethylase assay [2]: −18.35 |
| CN(C)c1ccc(C(=C2C=CC(=[N+](C)C)C=C2)c2ccc(N(C)C)cc2)cc1 [YU033841, GENTIAN VIOLET, reference compound] |  |  | 106 |  | 93.38 | 96.28 |  |
| NC(=O)NO [YU033863, HYDROXYUREA, reference compound] | −8.00 | 21.20 |  | 13.20 |  |  | Inhibitory effect (percent) [2, 5]: 43.49% |
| NNC(=O)c1ccncc1 [YU033872, ISONIAZID, reference compound] | −6.34 | 51.63 | 54.5 | 45.10 |  |  |  |
| S=c1[nH]cnc2nc[nH]c12 [YU033892, MERCAPTOPURINE, reference compound] | −2.15 | 35.94 |  | 33.79 |  |  | inhibition at 20 µM [2, 5]: 56% |
| COc1ccccc1OCC(O)COC(N)=O (centres unmarked) [YU033898, METHOCARBAMOL, reference compound] |  |  | 93.2 |  | 18.66 | 0.74 |  |
| NCCc1cc(O)c(O)cc1O [YU033940, OXIDOPAMINE HYDROCHLORIDE, reference compound] | 16.96 | 19.88 | 41 | 36.84 |  |  |  |
| COc1cc(NC(C)CCCN)c2ncccc2c1 (centres unmarked) [YU033971, PRIMAQUINE DIPHOSPHATE, reference compound] | −4.11 | 50.60 | 57.5 | 46.49 |  |  |  |
| Nc1nc2nc[nH]c2c(=S)[nH]1 [YU034024, THIOGUANINE, reference compound] | 0.37 | 36.52 |  | 36.89 |  |  | inhibition at 20 µM [2, 5]: 52.2% |
| CC(C)NNC(=O)c1ccncc1 [YU034066, IPRONIAZID SULFATE, reference compound] | 3.41 | 69.09 | 75.9 | 72.51 |  |  |  |
| O=C([O-])c1ccccc1-c1c2cc(Br)c(=O)cc-2oc2[c]([Hg][OH])c([O-])c(Br)cc12 [YU034068, MERBROMIN, reference compound] |  |  |  |  | −1.81 | 3.43 | Inhibitory effect (percent) [2, 3]: 99.27% |
| O=c1c(O)c(-c2ccc(O)c(O)c2)oc2cc(O)cc(O)c12 [YU034090, QUERCETIN, reference compound] |  |  |  |  | 58.14 | 62.82 | Inhibitory effect (percent) [2, 3]: 80.17% |
| C/C1=C2/[N-][C@H]([C@H](CC(N)=O)[C@@]2(C)CCC(=O)NC[C@@H](C)OP(=O)([O-])O[C@H]2[C@@H](O)[C@@H](n3cnc4cc(C)c(C)cc43)O[C@@H]2CO)[C@]2(C)N=C(/C(C)=C3N=C(/C=C4N=C1[C@@H](CCC(N)=O)C\4(C)C)[C@@H](CCC(N)=O)[C@]\3(C)CC(N)=O)[C@@H](CCC(N)=O)[C@]2(C)CC(N)=O.[Co] [YU034137, COBALAMINE, reference compound] | 1.27 | 28.34 |  | 27.06 |  |  | Inhibitory effect (percent) [2, 3]: 63.90% |
| C=C1c2cccc(O)c2C(=O)C2=C(O)[C@]3(O)C(=O)C(C(N)=O)=C(O)[C@@H](N(C)C)[C@@H]3[C@@H](O)[C@H]12 [YU034167, METHACYCLINE HYDROCHLORIDE, reference compound] |  |  | 51.5 |  | 56.96 | 62.51 |  |
| Cc1cc2c(C(C)C)c(O)c(O)c(C=O)c2c(O)c1-c1c(C)cc2c(C(C)C)c(O)c(O)c(C=O)c2c1O [YU034280, GOSSYPOL-ACETIC ACID COMPLEX, reference compound] |  |  | 78.2 |  | 64.46 | 54.61 |  |
| O=C(O)CCCC[C@@H]1SC[C@@H]2NC(=O)N[C@@H]21 [YU034331, BIOTIN, reference compound] |  |  | 104 |  | 99.61 | 104.67 |  |
| CCCCC(CC)CNC(=N)NC(=N)NCCCCCCNC(=N)NC(=N)NCC(CC)CCCC (centres unmarked) [YU034347, ALEXIDINE HYDROCHLORIDE, reference compound] | 5.60 | 66.40 | 80.6 | 72.00 |  |  |  |
